What was measured:
Type in all cases: in vivo
Lindernia procumbens [1] = experiment: Herbicidal efficacy on paddy field weeds of pre-emergence stage (Pre), Test Example 1; conditions: 1000 g/ha as active ingredient, examined after 21 days
Method in brief: (§1)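 Clay-loam pots sown with Scirpus juncoides, covered with soil containing Lindernia procumbens seed, flooded to 5 cm. Next day formulated compound applied dropwise to water at 1000 g/ha a.i. Greenhouse-grown; growth inhibition versus untreated scored 0–5 after 21 days.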

Scirpus juncoides [2] = experiment: Herbicidal effect on paddy field weeds of post-emergence stage (Post), Test Example 2; conditions: one-leaf stage, 1000 g/ha as active ingredient, examined after 21 days
Method in brief: (§2)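 Scirpus juncoides and Echinochloa crus-galli sown in clay loam, with Lindernia procumbens seed in the soil cover, under 5 cm flooding in greenhouse. At one-leaf stage, 1000 g/ha active ingredient applied to pot water. Efficacy scored visually 0–5 against untreated plants at 21 days after treatment.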

Lindernia procumbens [3] = experiment: as above; conditions: one-leaf stage, 1000 g/ha as active ingredient, examined after 21 days
Method in brief: as §2

Echinochloa crus-galli = experiment: as above; conditions: one-leaf stage, 1000 g/ha as active ingredient, examined after 21 days
Method in brief: as §2

Scirpus juncoides [4] = experiment: Herbicidal efficacy on paddy field weeds of pre-emergence stage (Pre), Test Example 1; conditions: 1000 g/ha as active ingredient, examined after 21 days
Method in brief: as §1

CCOCN(c1ccccc1CN1CCC(c2ccccc2C(F)(F)F)OC1=O)S(=O)(=O)C(F)(F)F (stereo not drawn) [Compound 1-303]
Lindernia procumbens pre (herbicidal effect) (Lindernia procumbens [1]): 5 (100% herbicidal effect, phytotoxicity)
Scirpus juncoides post (herbicidal effect) (Scirpus juncoides [2]): 4 (90%-99% herbicidal effect, phytotoxicity)
Lindernia procumbens post (herbicidal effect) (Lindernia procumbens [3]): 5 (100% herbicidal effect, phytotoxicity)
Echinochloa crus-galli post (herbicidal effect) (Echinochloa crus-galli): 4 (90%-99% herbicidal effect, phytotoxicity)

CCOC(=O)N(c1ccccc1CN1CCC(c2ccccc2)OC1=O)S(=O)(=O)C(F)(F)F (stereo not drawn) [Compound 1-241]
Lindernia procumbens pre (herbicidal effect) (Lindernia procumbens [1]): 5 (100% herbicidal effect, phytotoxicity)
Scirpus juncoides post (herbicidal effect) (Scirpus juncoides [2]): 4 (90%-99% herbicidal effect, phytotoxicity)
Lindernia procumbens post (herbicidal effect) (Lindernia procumbens [3]): 5 (100% herbicidal effect, phytotoxicity)
Echinochloa crus-galli post (herbicidal effect) (Echinochloa crus-galli): 4 (90%-99% herbicidal effect, phytotoxicity)

COC(=O)N(c1ccccc1CN1CCC(C)(c2c(F)cccc2F)OC1=O)S(=O)(=O)C(F)(F)F (racemic) [Compound 1-440]
Scirpus juncoides pre (herbicidal effect) (Scirpus juncoides [4]): 4 (90%-99% herbicidal effect, phytotoxicity)
Lindernia procumbens pre (herbicidal effect) (Lindernia procumbens [1]): 5 (100% herbicidal effect, phytotoxicity)
Scirpus juncoides post (herbicidal effect) (Scirpus juncoides [2]): 4 (90%-99% herbicidal effect, phytotoxicity)
Lindernia procumbens post (herbicidal effect) (Lindernia procumbens [3]): 5 (100% herbicidal effect, phytotoxicity)
Echinochloa crus-galli post (herbicidal effect) (Echinochloa crus-galli): 4 (90%-99% herbicidal effect, phytotoxicity)

CCOC(=O)N(c1ccccc1CN1CCC(C)(c2ccccc2F)OC1=O)S(=O)(=O)C(F)(F)F (racemic) [Compound 1-430]
Scirpus juncoides pre (herbicidal effect) (Scirpus juncoides [4]): 5 (100% herbicidal effect, phytotoxicity)
Lindernia procumbens pre (herbicidal effect) (Lindernia procumbens [1]): 5 (100% herbicidal effect, phytotoxicity)
Scirpus juncoides post (herbicidal effect) (Scirpus juncoides [2]): 4 (90%-99% herbicidal effect, phytotoxicity)
Lindernia procumbens post (herbicidal effect) (Lindernia procumbens [3]): 5 (100% herbicidal effect, phytotoxicity)
Echinochloa crus-galli post (herbicidal effect) (Echinochloa crus-galli): 4 (90%-99% herbicidal effect, phytotoxicity)

CC(C)(C)COC(=O)N(c1ccccc1CN1CCC(C)(C(F)(F)F)OC1=O)S(=O)(=O)C(F)(F)F (stereo not drawn) [Compound 1-86]
Scirpus juncoides pre (herbicidal effect) (Scirpus juncoides [4]): 4 (90%-99% herbicidal effect, phytotoxicity)
Lindernia procumbens pre (herbicidal effect) (Lindernia procumbens [1]): 4 (90%-99% herbicidal effect, phytotoxicity)
Scirpus juncoides post (herbicidal effect) (Scirpus juncoides [2]): 4 (90%-99% herbicidal effect, phytotoxicity)
Lindernia procumbens post (herbicidal effect) (Lindernia procumbens [3]): 4 (90%-99% herbicidal effect, phytotoxicity)
Echinochloa crus-galli post (herbicidal effect) (Echinochloa crus-galli): 4 (90%-99% herbicidal effect, phytotoxicity)

O=C1OCCCCN1Cc1ccccc1NS(=O)(=O)C(F)(F)F [2-1]
Scirpus juncoides pre (herbicidal effect) (Scirpus juncoides [4]): 4 (90%-99% herbicidal effect, phytotoxicity)
Lindernia procumbens pre (herbicidal effect) (Lindernia procumbens [1]): 4 (90%-99% herbicidal effect, phytotoxicity)
Scirpus juncoides post (herbicidal effect) (Scirpus juncoides [2]): 4 (90%-99% herbicidal effect, phytotoxicity)
Lindernia procumbens post (herbicidal effect) (Lindernia procumbens [3]): 4 (90%-99% herbicidal effect, phytotoxicity)
Echinochloa crus-galli post (herbicidal effect) (Echinochloa crus-galli): 4 (90%-99% herbicidal effect, phytotoxicity)

CC1(C)COC(=O)N(Cc2ccccc2NS(=O)(=O)C(F)(F)F)C1 [Compound 1-23]
Scirpus juncoides pre (herbicidal effect) (Scirpus juncoides [4]): 4 (90%-99% herbicidal effect, phytotoxicity)
Lindernia procumbens pre (herbicidal effect) (Lindernia procumbens [1]): 4 (90%-99% herbicidal effect, phytotoxicity)
Scirpus juncoides post (herbicidal effect) (Scirpus juncoides [2]): 4 (90%-99% herbicidal effect, phytotoxicity)
Lindernia procumbens post (herbicidal effect) (Lindernia procumbens [3]): 4 (90%-99% herbicidal effect, phytotoxicity)
Echinochloa crus-galli post (herbicidal effect) (Echinochloa crus-galli): 4 (90%-99% herbicidal effect, phytotoxicity)

CC(C)COC(=O)N(c1ccccc1CN1CCC(C)(C2(C)CC2)OC1=O)S(=O)(=O)C(F)(F)F (stereo not drawn) [Compound 1-376]
Scirpus juncoides pre (herbicidal effect) (Scirpus juncoides [4]): 5 (100% herbicidal effect, phytotoxicity)
Lindernia procumbens pre (herbicidal effect) (Lindernia procumbens [1]): 5 (100% herbicidal effect, phytotoxicity)
Scirpus juncoides post (herbicidal effect) (Scirpus juncoides [2]): 4 (90%-99% herbicidal effect, phytotoxicity)
Lindernia procumbens post (herbicidal effect) (Lindernia procumbens [3]): 5 (100% herbicidal effect, phytotoxicity)
Echinochloa crus-galli post (herbicidal effect) (Echinochloa crus-galli): 4 (90%-99% herbicidal effect, phytotoxicity)

CCCCOC(=O)N(c1ccccc1CN1CCCOC1=O)S(=O)(=O)C(F)(F)F [Compound 1-5]
Scirpus juncoides pre (herbicidal effect) (Scirpus juncoides [4]): 4 (90%-99% herbicidal effect, phytotoxicity)
Lindernia procumbens pre (herbicidal effect) (Lindernia procumbens [1]): 4 (90%-99% herbicidal effect, phytotoxicity)
Scirpus juncoides post (herbicidal effect) (Scirpus juncoides [2]): 4 (90%-99% herbicidal effect, phytotoxicity)
Lindernia procumbens post (herbicidal effect) (Lindernia procumbens [3]): 4 (90%-99% herbicidal effect, phytotoxicity)
Echinochloa crus-galli post (herbicidal effect) (Echinochloa crus-galli): 4 (90%-99% herbicidal effect, phytotoxicity)

CCCCOC(=O)N(c1ccccc1CN1CCC(C)COC1=O)S(=O)(=O)C(F)(F)F (racemic) [2-27]
Scirpus juncoides pre (herbicidal effect) (Scirpus juncoides [4]): 4 (90%-99% herbicidal effect, phytotoxicity)
Lindernia procumbens pre (herbicidal effect) (Lindernia procumbens [1]): 4 (90%-99% herbicidal effect, phytotoxicity)
Scirpus juncoides post (herbicidal effect) (Scirpus juncoides [2]): 4 (90%-99% herbicidal effect, phytotoxicity)
Lindernia procumbens post (herbicidal effect) (Lindernia procumbens [3]): 4 (90%-99% herbicidal effect, phytotoxicity)
Echinochloa crus-galli post (herbicidal effect) (Echinochloa crus-galli): 4 (90%-99% herbicidal effect, phytotoxicity)

COC(=O)N(c1ccccc1CN1CCC(c2c(C)cccc2C)OC1=O)S(=O)(=O)C(F)(F)F (stereo not drawn) [Compound 1-361]
Scirpus juncoides pre (herbicidal effect) (Scirpus juncoides [4]): 5 (100% herbicidal effect, phytotoxicity)
Lindernia procumbens pre (herbicidal effect) (Lindernia procumbens [1]): 5 (100% herbicidal effect, phytotoxicity)
Scirpus juncoides post (herbicidal effect) (Scirpus juncoides [2]): 4 (90%-99% herbicidal effect, phytotoxicity)
Lindernia procumbens post (herbicidal effect) (Lindernia procumbens [3]): 5 (100% herbicidal effect, phytotoxicity)
Echinochloa crus-galli post (herbicidal effect) (Echinochloa crus-galli): 4 (90%-99% herbicidal effect, phytotoxicity)

CCC1(C(F)(F)F)CCN(Cc2ccccc2NS(=O)(=O)C(F)(F)F)C(=O)O1 (stereo not drawn) [Compound 1-91]
Scirpus juncoides pre (herbicidal effect) (Scirpus juncoides [4]): 4 (90%-99% herbicidal effect, phytotoxicity)
Lindernia procumbens pre (herbicidal effect) (Lindernia procumbens [1]): 5 (100% herbicidal effect, phytotoxicity)
Scirpus juncoides post (herbicidal effect) (Scirpus juncoides [2]): 4 (90%-99% herbicidal effect, phytotoxicity)
Lindernia procumbens post (herbicidal effect) (Lindernia procumbens [3]): 5 (100% herbicidal effect, phytotoxicity)
Echinochloa crus-galli post (herbicidal effect) (Echinochloa crus-galli): 4 (90%-99% herbicidal effect, phytotoxicity)

COC(=O)N(c1ccccc1CN1CCC(C)COC1=O)S(=O)(=O)C(F)(F)F (racemic) [2-24]
Scirpus juncoides pre (herbicidal effect) (Scirpus juncoides [4]): 4 (90%-99% herbicidal effect, phytotoxicity)
Lindernia procumbens pre (herbicidal effect) (Lindernia procumbens [1]): 4 (90%-99% herbicidal effect, phytotoxicity)
Scirpus juncoides post (herbicidal effect) (Scirpus juncoides [2]): 4 (90%-99% herbicidal effect, phytotoxicity)
Lindernia procumbens post (herbicidal effect) (Lindernia procumbens [3]): 4 (90%-99% herbicidal effect, phytotoxicity)
Echinochloa crus-galli post (herbicidal effect) (Echinochloa crus-galli): 4 (90%-99% herbicidal effect, phytotoxicity)

CCOC(=O)N(c1ccccc1CN1CCC(c2ccccc2)(C(F)(F)F)OC1=O)S(=O)(=O)C(F)(F)F (stereo not drawn) [Compound 1-230]
Scirpus juncoides pre (herbicidal effect) (Scirpus juncoides [4]): 5 (100% herbicidal effect, phytotoxicity)
Lindernia procumbens pre (herbicidal effect) (Lindernia procumbens [1]): 5 (100% herbicidal effect, phytotoxicity)
Scirpus juncoides post (herbicidal effect) (Scirpus juncoides [2]): 4 (90%-99% herbicidal effect, phytotoxicity)
Lindernia procumbens post (herbicidal effect) (Lindernia procumbens [3]): 5 (100% herbicidal effect, phytotoxicity)
Echinochloa crus-galli post (herbicidal effect) (Echinochloa crus-galli): 4 (90%-99% herbicidal effect, phytotoxicity)

O=C1OC2(CCCC2)CCN1Cc1ccccc1NS(=O)(=O)C(F)(F)F [Compound 1-137]
Scirpus juncoides pre (herbicidal effect) (Scirpus juncoides [4]): 4 (90%-99% herbicidal effect, phytotoxicity)
Lindernia procumbens pre (herbicidal effect) (Lindernia procumbens [1]): 4 (90%-99% herbicidal effect, phytotoxicity)
Scirpus juncoides post (herbicidal effect) (Scirpus juncoides [2]): 4 (90%-99% herbicidal effect, phytotoxicity)
Lindernia procumbens post (herbicidal effect) (Lindernia procumbens [3]): 4 (90%-99% herbicidal effect, phytotoxicity)
Echinochloa crus-galli post (herbicidal effect) (Echinochloa crus-galli): 4 (90%-99% herbicidal effect, phytotoxicity)

COC(=O)N(c1ccccc1CN1CCC(C)(c2ccccc2C(F)(F)F)OC1=O)S(=O)(=O)C(F)(F)F (stereo not drawn) [Compound 1-394]
Scirpus juncoides pre (herbicidal effect) (Scirpus juncoides [4]): 5 (100% herbicidal effect, phytotoxicity)
Lindernia procumbens pre (herbicidal effect) (Lindernia procumbens [1]): 5 (100% herbicidal effect, phytotoxicity)
Scirpus juncoides post (herbicidal effect) (Scirpus juncoides [2]): 4 (90%-99% herbicidal effect, phytotoxicity)
Lindernia procumbens post (herbicidal effect) (Lindernia procumbens [3]): 5 (100% herbicidal effect, phytotoxicity)
Echinochloa crus-galli post (herbicidal effect) (Echinochloa crus-galli): 4 (90%-99% herbicidal effect, phytotoxicity)

CCOC(=O)N(c1ccccc1CN1CCC(C)COC1=O)S(=O)(=O)C(F)(F)F (racemic) [2-25]
Scirpus juncoides pre (herbicidal effect) (Scirpus juncoides [4]): 4 (90%-99% herbicidal effect, phytotoxicity)
Lindernia procumbens pre (herbicidal effect) (Lindernia procumbens [1]): 4 (90%-99% herbicidal effect, phytotoxicity)
Scirpus juncoides post (herbicidal effect) (Scirpus juncoides [2]): 4 (90%-99% herbicidal effect, phytotoxicity)
Lindernia procumbens post (herbicidal effect) (Lindernia procumbens [3]): 4 (90%-99% herbicidal effect, phytotoxicity)
Echinochloa crus-galli post (herbicidal effect) (Echinochloa crus-galli): 4 (90%-99% herbicidal effect, phytotoxicity)

CCOCN(c1ccccc1CN1CCC(c2ccccc2C)OC1=O)S(=O)(=O)C(F)(F)F (stereo not drawn) [Compound 1-292]
Lindernia procumbens pre (herbicidal effect) (Lindernia procumbens [1]): 5 (100% herbicidal effect, phytotoxicity)
Scirpus juncoides post (herbicidal effect) (Scirpus juncoides [2]): 4 (90%-99% herbicidal effect, phytotoxicity)
Lindernia procumbens post (herbicidal effect) (Lindernia procumbens [3]): 5 (100% herbicidal effect, phytotoxicity)
Echinochloa crus-galli post (herbicidal effect) (Echinochloa crus-galli): 4 (90%-99% herbicidal effect, phytotoxicity)

CCCC1(CC)CCN(Cc2ccccc2N(C(=O)OCC)S(=O)(=O)C(F)(F)F)C(=O)O1 (racemic) [Compound 1-496]
Scirpus juncoides pre (herbicidal effect) (Scirpus juncoides [4]): 5 (100% herbicidal effect, phytotoxicity)
Lindernia procumbens pre (herbicidal effect) (Lindernia procumbens [1]): 5 (100% herbicidal effect, phytotoxicity)
Scirpus juncoides post (herbicidal effect) (Scirpus juncoides [2]): 4 (90%-99% herbicidal effect, phytotoxicity)
Lindernia procumbens post (herbicidal effect) (Lindernia procumbens [3]): 5 (100% herbicidal effect, phytotoxicity)
Echinochloa crus-galli post (herbicidal effect) (Echinochloa crus-galli): 4 (90%-99% herbicidal effect, phytotoxicity)

CCOCN(c1ccccc1CN1CCC(CC)(C(F)(F)F)OC1=O)S(=O)(=O)C(F)(F)F (stereo not drawn) [Compound 1-100]
Scirpus juncoides pre (herbicidal effect) (Scirpus juncoides [4]): 4 (90%-99% herbicidal effect, phytotoxicity)
Lindernia procumbens pre (herbicidal effect) (Lindernia procumbens [1]): 5 (100% herbicidal effect, phytotoxicity)
Lindernia procumbens post (herbicidal effect) (Lindernia procumbens [3]): 4 (90%-99% herbicidal effect, phytotoxicity)
Echinochloa crus-galli post (herbicidal effect) (Echinochloa crus-galli): 4 (90%-99% herbicidal effect, phytotoxicity)

Source: patent US8048825B2, “Haloalkylsulfonanilide derivatives or salt thereof, herbicide comprising the derivatives as active ingredient, and use of the herbicide” (Nihon Nohyaku Co., Ltd., priority 2006, dated 2011)
